ChEMBL document CHEMBL1201862, “PubChem BioAssay data set” (2004)
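A five-concentration, 48-hour dose response in 96-well plates underlies each endpoint, interpolated linearly between surrounding concentrations. The concentration for 50% growth inhibition is given as GI50.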 Activity calls are given as the source filed them. Cut-off read from the data, not from the text of the source: active = GI50 up to about 1.1 µM and inactive = higher. Where a SMILES comes first, the peptide text is derived from it. The star is where a group is joined. Fmoc = O=C(OCC1c2ccccc2-c2ccccc21)*; OtBu = CC(C)(C)O*

What was measured:
Experiment in all cases: NCI-60 cell line screen, 48 h
DU-145 = tested on: DU-145
OVCAR-8 = tested on: OVCAR-8
NCI-H226 = tested on: NCI-H226
MOLT-4 = tested on: MOLT-4
786-0 = tested on: 786-0
NCI-H23 = tested on: NCI-H23
SN12C = tested on: SN12C
A498 = tested on: A498
BT-549 = tested on: BT-549
Malme-3M = tested on: Malme-3M
T47D = tested on: T47D
RPMI-8226 = tested on: RPMI-8226
HCT-15 = tested on: HCT-15
OVCAR-4 = tested on: OVCAR-4
HCT-116 = tested on: HCT-116
HL-60 = tested on: HL-60
EKVX = tested on: EKVX
COLO 205 = tested on: COLO 205
ACHN = tested on: ACHN
MDA-N = tested on: MDA-N
MDA-MB-231 = tested on: MDA-MB-231
NCI-H460 = tested on: NCI-H460
KM12 = tested on: KM12
HOP-92 = tested on: HOP-92
UO-31 = tested on: UO-31
HOP-62 = tested on: HOP-62
MDA-MB-435 = tested on: MDA-MB-435
M14 = tested on: M14
SK-MEL-2 = tested on: SK-MEL-2
NCI/ADR-RES = tested on: NCI/ADR-RES
OVCAR-3 = tested on: OVCAR-3
Hs-578T = tested on: Hs-578T
SNB-19 = tested on: SNB-19
SR = tested on: SR
CAKI-1 = tested on: CAKI-1
OVCAR-5 = tested on: OVCAR-5
CCRF-CEM = tested on: CCRF-CEM
HCC 2998 = tested on: HCC 2998
U-251 = tested on: U-251
HT-29 = tested on: HT-29
SF-295 = tested on: SF-295
SF-539 = tested on: SF-539
NCI-H522 = tested on: NCI-H522
UACC-257 = tested on: UACC-257
UACC-62 = tested on: UACC-62
K562 = tested on: K562
SF-268 = tested on: SF-268
SK-MEL-5 = tested on: SK-MEL-5
RXF 393 = tested on: RXF 393
SK-OV-3 = tested on: SK-OV-3
PC-3 = tested on: PC-3
SK-MEL-28 = tested on: SK-MEL-28
A549 = tested on: A549
TK-10 = tested on: TK-10
IGROV-1 = tested on: IGROV-1
MCF7 = tested on: MCF7
SW-620 = tested on: SW-620
LOX IMVI = tested on: LOX IMVI
SNB-75 = tested on: SNB-75

COc1ccc2cc(-c3nc(N)nc(N4N=C(C)CC4(C)C)n3)c(=N)oc2c1
GI50 (DU-145): 15.8 µM (inactive) | GI50 (OVCAR-8): 23 µM (inactive) | GI50 (NCI-H226): 15.3 µM (inactive) | GI50 (MOLT-4): 11.7 µM (inactive) | GI50 (786-0): 17.9 µM (inactive) | GI50 (NCI-H23): 16.5 µM (inactive) | GI50 (SN12C): 20.2 µM (inactive) | GI50 (A498): 32.3 µM (inactive) | GI50 (BT-549): 18.6 µM (inactive) | GI50 (Malme-3M): 16.5 µM (inactive) | GI50 (T47D): 15.4 µM (inactive) | GI50 (RPMI-8226): 16 µM (inactive) | GI50 (HCT-15): 14.8 µM | GI50 (OVCAR-4): 18 µM (inactive) | GI50 (HCT-116): 19.1 µM (inactive) | GI50 (HL-60): 19.9 µM (inactive) | GI50 (EKVX): 26.2 µM (inactive) | GI50 (COLO 205): 16.6 µM (inactive) | GI50 (ACHN): 16.3 µM (inactive) | GI50 (MDA-N): 17.1 µM (inactive) | GI50 (MDA-MB-231): 18.8 µM (inactive) | GI50 (NCI-H460): 17.4 µM (inactive) | GI50 (KM12): 15.9 µM (inactive) | GI50 (HOP-92): 19.7 µM (inactive) | GI50 (UO-31): 21.5 µM (inactive) | GI50 (HOP-62): 22.2 µM (inactive) | GI50 (MDA-MB-435): 18.5 µM (inactive) | GI50 (M14): 21.5 µM (inactive) | GI50 (SK-MEL-2): 17.5 µM (inactive) | GI50 (NCI/ADR-RES): 31.4 µM (inactive) | GI50 (OVCAR-3): 15.2 µM (inactive) | GI50 (Hs-578T): 23.2 µM (inactive) | GI50 (SNB-19): 19.3 µM (inactive) | GI50 (SR): 13.9 µM (inactive) | GI50 (CAKI-1): 17.5 µM (inactive) | GI50 (OVCAR-5): 18.7 µM (inactive) | GI50 (CCRF-CEM): 16.1 µM (inactive) | GI50 (HCC 2998): 17.9 µM (inactive) | GI50 (U-251): 18.8 µM (inactive) | GI50 (HT-29): 17.6 µM (inactive) | GI50 (SF-295): 18.3 µM (inactive) | GI50 (SF-539): 16 µM (inactive) | GI50 (NCI-H522): 13.5 µM (inactive) | GI50 (UACC-257): 28.9 µM (inactive) | GI50 (UACC-62): 17.6 µM (inactive) | GI50 (K562): 16.4 µM (inactive) | GI50 (SF-268): 16.9 µM (inactive) | GI50 (SK-MEL-5): 16.2 µM (inactive) | GI50 (RXF 393): 23.4 µM (inactive) | GI50 (SK-OV-3): 23.6 µM (inactive) | GI50 (PC-3): 16.8 µM (inactive) | GI50 (SK-MEL-28): 16.9 µM (inactive) | GI50 (A549): 24.9 µM (inactive) | GI50 (TK-10): 32.6 µM (inactive) | GI50 (IGROV-1): 14.8 µM (inactive) | GI50 (MCF7): 16.7 µM (inactive)

O=C(CC(C(=O)c1ccco1)c1cccs1)c1cccs1 (stereo not given)
GI50 (DU-145): > 100 µM (inactive) | GI50 (OVCAR-8): 44.7 µM (inactive) | GI50 (NCI-H226): > 100 µM (inactive) | GI50 (786-0): > 100 µM (inactive) | GI50 (NCI-H23): 58.5 µM (inactive) | GI50 (SN12C): 66.8 µM (inactive) | GI50 (A498): 96.2 µM (inactive) | GI50 (BT-549): 46.5 µM (inactive) | GI50 (Malme-3M): 96.2 µM (inactive) | GI50 (T47D): 28.2 µM (inactive) | GI50 (RPMI-8226): 55.7 µM (inactive) | GI50 (HCT-15): 50.2 µM | GI50 (OVCAR-4): 36 µM (inactive) | GI50 (HCT-116): 32.9 µM (inactive) | GI50 (HL-60): 27.2 µM (inactive) | GI50 (EKVX): 24.9 µM (inactive) | GI50 (SW-620): 94.8 µM (inactive) | GI50 (COLO 205): 51.9 µM (inactive) | GI50 (ACHN): 58.7 µM (inactive) | GI50 (LOX IMVI): 37.3 µM (inactive) | GI50 (MDA-N): 37.6 µM (inactive) | GI50 (MDA-MB-231): > 100 µM (inactive) | GI50 (NCI-H460): 80.5 µM (inactive) | GI50 (KM12): 40.6 µM (inactive) | GI50 (HOP-92): 59.4 µM (inactive) | GI50 (UO-31): 30.7 µM (inactive) | GI50 (HOP-62): 87.7 µM (inactive) | GI50 (MDA-MB-435): 35.9 µM (inactive) | GI50 (M14): 46.6 µM (inactive) | GI50 (SK-MEL-2): 37.4 µM (inactive) | GI50 (NCI/ADR-RES): 36.1 µM (inactive) | GI50 (OVCAR-3): 40.7 µM (inactive) | GI50 (Hs-578T): 49.9 µM (inactive) | GI50 (SNB-19): > 100 µM (inactive) | GI50 (SR): 34.6 µM (inactive) | GI50 (CAKI-1): > 100 µM (inactive) | GI50 (OVCAR-5): 61.4 µM (inactive) | GI50 (HCC 2998): 49.2 µM (inactive) | GI50 (U-251): 67.5 µM (inactive) | GI50 (HT-29): 37.9 µM (inactive) | GI50 (SF-295): 38.8 µM (inactive) | GI50 (SF-539): > 100 µM (inactive) | GI50 (NCI-H522): 41.9 µM (inactive) | GI50 (UACC-257): 24.8 µM (inactive) | GI50 (UACC-62): 36.3 µM (inactive) | GI50 (SF-268): 57.9 µM (inactive) | GI50 (SK-MEL-5): 32.4 µM (inactive) | GI50 (RXF 393): 51.3 µM (inactive) | GI50 (SK-OV-3): 87.1 µM (inactive) | GI50 (PC-3): 42.5 µM (inactive) | GI50 (SK-MEL-28): 42.7 µM (inactive) | GI50 (A549): 41.7 µM (inactive) | GI50 (TK-10): > 100 µM (inactive) | GI50 (IGROV-1): 65.6 µM (inactive) | GI50 (MCF7): 46.8 µM (inactive) | GI50 (SNB-75): 44.4 µM (inactive)

CC(C)C(NC(=O)OCC1c2ccccc2-c2ccccc21)C(=O)NC(CCC(=O)OC(C)(C)C)C(=O)OC(C)(C)C (stereo not given) (Fmoc-Val-Glu(OtBu)-OtBu; configuration not given here)
GI50 (DU-145): > 100 µM (inactive) | GI50 (OVCAR-8): 23.9 µM (inactive) | GI50 (NCI-H226): > 100 µM (inactive) | GI50 (MOLT-4): 4.21 µM (inactive) | GI50 (786-0): > 100 µM (inactive) | GI50 (NCI-H23): 14.9 µM (inactive) | GI50 (SN12C): > 31.6 µM (inactive) | GI50 (A498): 58.5 µM (inactive) | GI50 (BT-549): > 100 µM (inactive) | GI50 (Malme-3M): > 100 µM (inactive) | GI50 (T47D): 8.57 µM (inactive) | GI50 (RPMI-8226): 2.92 µM (inactive) | GI50 (HCT-15): > 100 µM | GI50 (OVCAR-4): 12.8 µM (inactive) | GI50 (HCT-116): 4.42 µM (inactive) | GI50 (HL-60): 4.14 µM (inactive) | GI50 (EKVX): > 100 µM (inactive) | GI50 (SW-620): > 71.4 µM (inactive) | GI50 (COLO 205): > 31.6 µM (inactive) | GI50 (ACHN): > 100 µM (inactive) | GI50 (LOX IMVI): 8.38 µM (inactive) | GI50 (MDA-N): > 100 µM (inactive) | GI50 (MDA-MB-231): 19.3 µM (inactive) | GI50 (NCI-H460): 21.2 µM (inactive) | GI50 (KM12): > 29.2 µM (inactive) | GI50 (HOP-92): > 42 µM (inactive) | GI50 (UO-31): > 56.2 µM (inactive) | GI50 (HOP-62): > 93.1 µM (inactive) | GI50 (MDA-MB-435): > 100 µM (inactive) | GI50 (M14): > 100 µM (inactive) | GI50 (NCI/ADR-RES): 27 µM (inactive) | GI50 (OVCAR-3): > 100 µM (inactive) | GI50 (Hs-578T): > 100 µM (inactive) | GI50 (SNB-19): > 100 µM (inactive) | GI50 (SR): 3.29 µM (inactive) | GI50 (CAKI-1): > 100 µM (inactive) | GI50 (OVCAR-5): > 100 µM (inactive) | GI50 (CCRF-CEM): > 100 µM (inactive) | GI50 (HCC 2998): > 100 µM (inactive) | GI50 (U-251): 7.59 µM (inactive) | GI50 (HT-29): > 100 µM (inactive) | GI50 (SF-295): 17.2 µM (inactive) | GI50 (SF-539): 24.1 µM (inactive) | GI50 (NCI-H522): > 45.1 µM (inactive) | GI50 (UACC-257): > 100 µM (inactive) | GI50 (UACC-62): > 76.9 µM (inactive) | GI50 (K562): > 20.5 µM (inactive) | GI50 (SF-268): > 87.3 µM (inactive) | GI50 (SK-MEL-5): 7.69 µM (inactive) | GI50 (RXF 393): > 20 µM (inactive) | GI50 (SK-OV-3): > 100 µM (inactive) | GI50 (PC-3): 3.99 µM (inactive) | GI50 (SK-MEL-28): > 100 µM (inactive) | GI50 (A549): 60 µM (inactive) | GI50 (TK-10): > 100 µM (inactive) | GI50 (IGROV-1): > 100 µM (inactive) | GI50 (MCF7): > 76.4 µM (inactive) | GI50 (SNB-75): > 46.9 µM (inactive)
